In ChEMBL document CHEMBL1129141, “Synthesis, characterization, and anti-HIV activity of some 2-p-X-phenyl-1,3-N,N-diphenyl-amidines” (Bioorg Med Chem Lett, 1996):

Legend:
[1] = SI (selectivity index) is the ratio of TC50 to EC50; assay type: functional
[2] = test system: Human immunodeficiency virus 1; test: Compound was tested for the drug concentration which reduces viral antigen production by 50%; assay type: functional, organism-based
[3] = Compound was tested for the drug concentration which reduces the viability of uninfected C8166 cells by 50%; assay type: cell-based; conditions: human, read-out: TC50 (the source's name)

| Structure (SMILES) | SI [1] | EC50 [2] [µM] | CC50 [3] [µM] |
| --- | --- | --- | --- |
| O=[N+]([O-])c1ccc(/C(=N/c2ccccc2)Nc2ccccc2)cc1 | 4 | 20 | 80 |
| COc1ccc(/C(=N/c2ccccc2)Nc2ccccc2)cc1 | < 1 | > 80 | 80 |
| Clc1ccc(/C(=N/c2ccccc2)Nc2ccccc2)cc1 | 125 | 8 | 1000 |
| c1ccc(/N=C(\Nc2ccccc2)c2ccccc2)cc1 | < 1 | > 400 | 400 |
| Brc1ccc(/C(=N/c2ccccc2)Nc2ccccc2)cc1 | 2 | 100 | 200 |
| Cc1cn([C@H]2C[C@H](N=[N+]=[N-])[C@@H](CO)O2)c(=O)[nH]c1=O [ZIDOVUDINE] | > 6 | 0.016 | > 1000 |
| Cc1ccc(/C(=N/c2ccccc2)Nc2ccccc2)cc1 | < 1 | > 500 | > 500 |
